Measured values published in patent US11596639B2, “Substituted indole Mcl-1 inhibitors” (Vanderbilt University, priority 2016, dated 2023).

Experiments:
Mcl-1 = Mcl-1 (Homo sapiens (Human), UniProt Q07820); assay: Fluorescence polarization anisotropy (FPA) competition assay, FITC-Bak or FITC-Bim BH3 peptide; type: binding; conditions: read-out: Ki for Inhibition of Mcl-1 by FPA assay
[1] = tested on: H929 human cancer cell lines; assay: Cellular viability / proliferation (Cell TiterGlo, 72 h); type: cell-based; conditions: read-out: GI50 on cellular proliferation of H929 human cancer cell lines; H929 cells, 72 h, Cell TiterGlo, 10% FBS
Protocol: Cellular Viability of Human Tumor Cell Lines
To evaluate compound effect on cellular proliferation, cells were plated at 1,000 cells/well in 96-well tissue culture plates in a total volume of 90 μL medium supplemented with 10% FBS (Sigma, Saint Louis, Mo.). 24 hours later, 10 μL of compound (in a 2-fold serial dilution) is added to the cells for a top concentration of 50 μM and a final DMSO concentration <1%. After 72 hours, 50 μL of Cell TiterGlo (Promega, Madison, Wis., USA) reagent is added to each well and plates are incubated at room temperature, in the dark, for 30 minutes. Luminescence is measured on a BioTek Cytation 3. Luminescence values are imported into a template in XLFit (Guildford, Surrey, UK) that uses a four-parameter fit to generate an IC50 value for each compound dilution series on the plate.

Sequence of Mcl-1 (Q07820 172-327): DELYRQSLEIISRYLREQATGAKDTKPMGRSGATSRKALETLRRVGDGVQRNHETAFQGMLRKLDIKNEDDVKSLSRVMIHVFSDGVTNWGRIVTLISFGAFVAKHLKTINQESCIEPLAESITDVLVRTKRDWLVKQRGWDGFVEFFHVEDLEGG

| SMILES | Ki (Mcl-1) [nM] | GI50 [1] [nM] |
| --- | --- | --- |
| COC(=O)c1cc2c(c(N3CCCn4c(c(CCCOc5cc(C)c(Cl)c(C)c5)c5ccc(Cl)c(-c6c(C)nn(C)c6C)c54)C3=O)c1)OCCO2 [Example 60, Methyl 8-(8-chloro-11-(3-(4-chloro-3,5-dimethylphenoxy)propyl)-1-oxo-7-(1,3,5-trimethyl-1H-pyrazol-4-yl)-4,5-dihydro-1H-[1,4]diazepino[1,2-a]indol-2(3H)-yl)-2,3-dihydrobenzo[b][1,4]dioxine-6-carboxylate] | < 1 | – |
| Cc1cc(OCCCc2c3n(c4c(-c5c(C)nn(C)c5C)c(Cl)ccc24)CCCN(C2=CNC(C(=O)O)=C(O)N2)C3=O)cc(C)c1Cl [Example 73, 5-(8-Chloro-11-(3-(4-chloro-3,5-dimethylphenoxy)propyl)-1-oxo-7-(1,3,5-trimethyl-1H-pyrazol-4-yl)-4,5-dihydro-1H-[1,4]diazepino[1,2-a]indol-2(3H)-yl)-3-hydroxy-1,4-dihydropyrazine-2-carboxylic acid] | < 1 | – |
| COc1ccc(N2C[C@@H](C)n3c(c(CCCOc4cc(C)c(Cl)c(C)c4)c4ccc(Cl)c(-c5c(C)nn(C)c5C)c43)C2=O)c2c1c(C)c(C(N)=O)n2C [Example 411, (R)-7-(7-Chloro-10-(3-(4-chloro-3,5-dimethylphenoxy)propyl)-4-methyl-1-oxo-6-(1,3,5-trimethyl-1H-pyrazol-4-yl)-3,4-dihydropyrazino[1,2-a]indol-2(1H)-yl)-4-methoxy-1,3-dimethyl-1H-indole-2-carboxamide] | 5.6 | – |
| CCn1ncc2c(C(=O)O)cc(N3C[C@@H](C)n4c(c(CCCOc5cc(C)c(Cl)c(C)c5)c5ccc(Cl)c(-c6c(C)nn(C)c6C)c54)C3=O)cc21 [Example 87, (R)-6-(7-chloro-10-(3-(4-chloro-3,5-dimethylphenoxy)propyl)-4-methyl-1-oxo-6-(1,3,5-trimethyl-1H-pyrazol-4-yl)-3,4-dihydropyrazino[1,2-a]indol-2(1H)-yl)-1-ethyl-1H-indazole-4-carboxylic acid] | < 1 | – |
| Cc1cc(OCCCc2c3n(c4c(-c5c(C)nn(C)c5C)c(Cl)ccc24)[C@H](C)CN(c2ccc(OCC4CCN(C)C4)c4c2cc(C(=O)O)n4C)C3=O)cc(C)c1Cl (some centres unmarked) [Example 319, 4-((M, R)-7-Chloro-10-(3-(4-chloro-3,5-dimethylphenoxy)propyl)-4-methyl-1-oxo-6-(1,3,5-trimethyl-1H-pyrazol-4-yl)-3,4-dihydropyrazino[1,2-a]indol-2(1H)-yl)-1-methyl-7-((1-methylpyrrolidin-3-yl)methoxy)-1H-indole-2-carboxylic acid] | 3.2 | – |
| Cc1cc(OCCCc2c(C(=O)N3CCN(c4cccc(C(=O)O)c4)CC3)[nH]c3c(-c4c(C)nn(C)c4C)c(Cl)ccc23)cc(C)c1Cl [Example 732, 3-(4-(6-chloro-3-(3-(4-chloro-3,5-dimethylphenoxy)propyl)-7-(1,3,5-trimethyl-1H-pyrazol-4-yl)-1H-indole-2-carbonyl)piperazin-1-yl)benzoic acid] | 38 | – |
| CC[C@@H]1Cn2c(c(CCCOc3cc(C)c(Cl)c(C)c3)c3ccc(Cl)c(-c4c(C)nn(C)c4C)c32)C(=O)N1 [Example 24, (R)-7-chloro-10-(3-(4-chloro-3,5-dimethylphenoxy)propyl)-3-ethyl-6-(1,3,5-trimethyl-1H-pyrazol-4-yl)-3,4-dihydropyrazino[1,2-a]indol-1(2H)-one] | 25 | – |
| Cc1cc(OCCCc2c3n(c4c(-c5c(C)nn(C)c5C)c(Cl)ccc24)[C@H](C)CN(c2cc(O)cc4c2cc(C(=O)O)n4C)C3=O)cc(C)c1Cl [Example 303, (P, R)-4-(7-chloro-10-(3-(4-chloro-3,5-dimethylphenoxy)propyl)-4-methyl-1-oxo-6-(1,3,5-trimethyl-1H-pyrazol-4-yl)-3,4-dihydropyrazino[1,2-a]indol-2(1H)-yl)-6-hydroxy-1-methyl-1H-indole-2-carboxylic acid] | < 1 | – |
| Cc1cc(OCCCc2c3n(c4c(-c5c(C)nn(C)c5C)c(Cl)ccc24)[C@H](C)CN(c2cccc4c2cc(C(N)=O)n4C)C3=O)cc(C)c1Cl [Example 266, 4-[(4R)-7-chloro-10-[3-(4-chloro-3,5-dimethyl-phenoxy)propyl]-4-methyl-1-oxo-6-(1,3,5-trimethylpyrazol-4-yl)-3,4-dihydropyrazino[1,2-a]indol-2-yl]-1-methyl-indole-2-carboxamide] | 9.2 | – |
| Cc1ccc(S(=O)(=O)N2CCN(c3cc(C(=O)O)cc(CN4CCCn5c(c(CCCOc6cc(C)c(Cl)c(C)c6)c6ccc(Cl)c(-c7c(C)nn(C)c7C)c65)C4=O)n3)CC2)o1 [Example 27, 2-((8-chloro-11-(3-(4-chloro-3,5-dimethylphenoxy)propyl)-1-oxo-7-(1,3,5-trimethyl-1H-pyrazol-4-yl)-4,5-dihydro-1H-[1,4]diazepino[1,2-a]indol-2(3H)-yl)methyl)-6-(4-((5-methylfuran-2-yl)sulfonyl)piperazin-1-yl)isonicotinic acid] | 39 | – |
| Cc1cc(OCCCc2c3n(c4c(-c5c(C)nn(C)c5C)c(Cl)ccc24)[C@H](C)CN(c2nc4cc(C(=O)O)ccn4n2)C3=O)cc(C)c1Cl [Example 135, (R)-2-(7-chloro-10-(3-(4-chloro-3,5-dimethylphenoxy)propyl)-4-methyl-1-oxo-6-(1,3,5-trimethyl-1H-pyrazol-4-yl)-3,4-dihydropyrazino[1,2-a]indol-2(1H)-yl)-[1,2,4]triazolo[1,5-a]pyridine-7-carboxylic acid] | < 1 | – |
| Cc1cc(OCCCc2c3n(c4c(-c5c(C)nn(C)c5C)c(Cl)ccc24)CCCN(c2cc(C(=O)O)c4c(c2)nnn4C)C3=O)cc(C)c1Cl [Example 5, 6-[8-Chloro-11-[3-(4-chloro-3,5-dimethyl-phenoxy)propyl]-1-oxo-7-(1,3,5-trimethylpyrazol-4-yl)-4,5-dihydro-3H-[1,4]diazepino[1,2-a]indol-2-yl]-3-methyl-benzotriazole-4-carboxylic acid] | 2.7 | – |
| Cc1cc(OCCCc2c3n(c4c(-c5c(C)nn(C)c5C)c(Cl)ccc24)CCCN(c2cc4c(c(C(=O)O)c2)OCC4)C3=O)cc(C)c1Cl [Example 18, 5-[8-chloro-11-[3-(4-chloro-3,5-dimethyl-phenoxy)propyl]-1-oxo-7-(1,3,5-trimethylpyrazol-4-yl)-4,5-dihydro-3H-[1,4]diazepino[1,2-a]indol-2-yl]-2,3-dihydrobenzofuran-7-carboxylic acid] | 5.8 | – |
| Cc1cc(OCCCc2c3n(c4c(-c5c(C)nn(C)c5C)c(Cl)ccc24)[C@H](C)CN(c2cn(C)c4cc(C(F)(F)F)ccc24)C3=O)cc(C)c1Cl [Example 199, (4R)-7-chloro-10-[3-(4-chloro-3,5-dimethyl-phenoxy)propyl]-4-methyl-2-[1-methyl-6-(trifluoromethyl)indol-3-yl]-6-(1,3,5-trimethylpyrazol-4-yl)-3,4-dihydropyrazino[1,2-a]indol-1-one] | 12 | – |
| Cc1cc(OCCCc2c(C(=O)N3CCN(c4cncc(C(=O)O)c4)CC3)n(Cc3cccnc3)c3c(-c4c(C)nn(C)c4C)c(Cl)ccc23)cc(C)c1Cl [Example 734, 5-(4-(6-chloro-3-(3-(4-chloro-3,5-dimethylphenoxy)propyl)-1-(pyridin-3-ylmethyl)-7-(1,3,5-trimethyl-1H-pyrazol-4-yl)-1H-indole-2-carbonyl)piperazin-1-yl)nicotinic acid] | > 200 | – |
| Cc1cc(OCCCc2c3n(c4c(-c5c(C)nn(C)c5C)c(Cl)ccc24)[C@H](C)CN(c2ccc4nc(C(=O)O)cn4c2)C3=O)cc(C)c1Cl [Example 139, (R)-6-(7-chloro-10-(3-(4-chloro-3,5-dimethylphenoxy)propyl)-4-methyl-1-oxo-6-(1,3,5-trimethyl-1H-pyrazol-4-yl)-3,4-dihydropyrazino[1,2-a]indol-2(1H)-yl)imidazo[1,2-a]pyridine-2-carboxylic acid] | 1.1 | – |
| Cc1cc(OCCCc2c3n(c4c(-c5c(C)nn(C)c5C)c(Cl)ccc24)[C@H](C)CN(c2cn(C)c4ccc(C(F)(F)F)cc24)C3=O)cc(C)c1Cl (single isomer, unassigned) [Example 193] | 3.9 | – |
| Cc1cc(OCCCc2c3n(c4c(-c5c(C)nn(C)c5C)c(Cl)ccc24)CCCN(Cc2cc(C(=O)O)cc(N4CCN(S(=O)(=O)C5CC5)CC4)n2)C3=O)cc(C)c1Cl [Example 47, 2-((8-Chloro-11-(3-(4-chloro-3,5-dimethylphenoxy)propyl)-1-oxo-7-(1,3,5-trimethyl-1H-pyrazol-4-yl)-4,5-dihydro-1H-[1,4]diazepino[1,2-a]indol-2(3H)-yl)methyl)-6-(4-(cyclopropylsulfonyl)piperazin-1-yl)isonicotinic acid] | 19 | – |
| Cc1cc(CCCCc2c(C(=O)N3CCN(c4ccnc(C(=O)O)c4)CC3)n(Cc3cccnc3)c3c(-c4c(C)nn(C)c4C)c(Cl)ccc23)cc(C)c1Cl [Example 742, 4-(4-(6-Chloro-3-(4-(4-chloro-3,5-dimethylphenyl)butyl)-1-(pyridin-3-ylmethyl)-7-(1,3,5-trimethyl-1H-pyrazol-4-yl)-1H-indole-2-carbonyl)piperazin-1-yl)picolinic acid] | > 200 | – |
| Cc1cc(OCCCc2c3n(c4c(-c5c(C)nn(C)c5C)c(Cl)ccc24)CCCN(c2cc(C(=O)O)c4ccn(C)c4c2)C3=O)cc(C)c1Cl (single isomer, unassigned) [Example 440, 6-(8-chloro-11-(3-(4-chloro-3,5-dimethylphenoxy)propyl)-1-oxo-7-(1,3,5-trimethyl-1H-pyrazol-4-yl)-4,5-dihydro-1H-[1,4]diazepino[1,2-a]indol-2(3H)-yl)-1-methyl-1H-indole-4-carboxylic acid] | – | 4500 |
